Tested on: MV-4-11 cells
Assay: Gene expression microarray analysis (Affymetrix PrimeView) and GSEA
Format: cell-based, human
Design: RFU PODN (11730768_x_at) / Fold change /veh PODN (11730768_x_at) / RFU LINC00158 (11744669_a_at) / Fold change /veh LINC00158 (11744669_a_at) / RFU DUSP10 (11751237_a_at) / Fold change /veh DUSP10 (11751237_a_at) / RFU ID3 (11757404_x_at) / Fold change /veh ID3 (11757404_x_at) / RFU PLEKHG5 (11737974_s_at) / Fold change /veh PLEKHG5 (11737974_s_at) / RFU LRRC4B (11730491_at) / Fold change /veh LRRC4B (11730491_at) / RFU GIMAP4 (11747438_a_at) / Fold change /veh GIMAP4 (11747438_a_at) / RFU KRT8 (11758183_x_at) / Fold change /veh KRT8 (11758183_x_at) / RFU CNN1 (11734310_a_at) / Fold change /veh CNN1 (11734310_a_at) / RFU VPS37D (11726825_at) / Fold change /veh VPS37D (11726825_at) / RFU C10orf10 (11716522_x_at) / Fold change /veh C10orf10 (11716522_x_at) / RFU KIR2DL2 /// KIR2DL4 /// KIR2DL5A /// KIR2DL5B /// KIR2DS1 /// KIR2DS2 /// KIR2DS3 /// KIR2DS4 /// KIR3DL3 /// KIR3DL3 /// KIR3DS1 (11738374_at) / Fold change /veh KIR2DL2 /// KIR2DL4 /// KIR2DL5A /// KIR2DL5B /// KIR2DS1 /// KIR2DS2 /// KIR2DS3 /// KIR2DS4 /// KIR3DL3 /// KIR3DL3 /// KIR3DS1 (11738374_at) / RFU C1QL1 (11718748_at) / Fold change /veh C1QL1 (11718748_at) / RFU TMPRSS4 (11747572_a_at) / Fold change /veh TMPRSS4 (11747572_a_at) / RFU HAMP (11756126_x_at) / Fold change /veh HAMP (11756126_x_at) / RFU RNFT2 (11725882_a_at) / Fold change /veh RNFT2 (11725882_a_at) / RFU NR4A2 (11747474_a_at) / Fold change /veh NR4A2 (11747474_a_at) / RFU ABCC12 (11746883_a_at) / Fold change /veh ABCC12 (11746883_a_at) / RFU TMEM136 (11760407_x_at) / Fold change /veh TMEM136 (11760407_x_at) / RFU CLDN22 /// WWC2 (11732394_at) / Fold change /veh CLDN22 /// WWC2 (11732394_at) / RFU HLA-DPB1 (11760878_x_at) / Fold change /veh HLA-DPB1 (11760878_x_at) / RFU SPINT1 (11716480_a_at) / Fold change /veh SPINT1 (11716480_a_at) / RFU GAP43 (11754022_s_at) / Fold change /veh GAP43 (11754022_s_at) / RFU A4GNT (11735810_at) / Fold change /veh A4GNT (11735810_at) / RFU PRB3 (11715151_x_at) / Fold change /veh PRB3 (11715151_x_at) / RFU TUBB4B (11761932_at) / Fold change /veh TUBB4B (11761932_at) / RFU CAPN14 (11732068_a_at) / Fold change /veh CAPN14 (11732068_a_at) / RFU TMCC2 (11721928_a_at) / Fold change /veh TMCC2 (11721928_a_at) / RFU IRGQ (11745062_a_at) / Fold change /veh IRGQ (11745062_a_at) / RFU FAM174B (11720279_a_at) / Fold change /veh FAM174B (11720279_a_at) / RFU TMPRSS4 (11748680_a_at) / Fold change /veh TMPRSS4 (11748680_a_at) / RFU FAM212B (11763350_a_at) / Fold change /veh FAM212B (11763350_a_at) / RFU PLEKHG5 (11743358_a_at) / Fold change /veh PLEKHG5 (11743358_a_at) / RFU ZSCAN30 (11745921_a_at) / Fold change /veh ZSCAN30 (11745921_a_at) / RFU CMKLR1 (11741424_a_at) / Fold change /veh CMKLR1 (11741424_a_at) / RFU LOC101060620 /// MAPK8IP1 (11723275_at) / Fold change /veh LOC101060620 /// MAPK8IP1 (11723275_at) / RFU SPTSSB (11747773_x_at) / Fold change /veh SPTSSB (11747773_x_at) / RFU PRSS12 (11739890_at) / Fold change /veh PRSS12 (11739890_at) / RFU BIN1 (11741810_x_at) / Fold change /veh BIN1 (11741810_x_at) / RFU WNT11 (11732464_a_at) / Fold change /veh WNT11 (11732464_a_at) / RFU C10orf10 (11716521_a_at) / Fold change /veh C10orf10 (11716521_a_at) / RFU C5orf56 (11738089_at) / Fold change /veh C5orf56 (11738089_at) / RFU CYB561 (11721691_x_at) / Fold change /veh CYB561 (11721691_x_at) / RFU ANKRD19P (11752326_a_at) / Fold change /veh ANKRD19P (11752326_a_at) / RFU OR2T12 /// OR2T33 /// OR2T8 (11738714_s_at) / Fold change /veh OR2T12 /// OR2T33 /// OR2T8 (11738714_s_at) / RFU VCAN (11748164_a_at) / Fold change /veh VCAN (11748164_a_at) / RFU JSRP1 (11732532_at) / Fold change /veh JSRP1 (11732532_at) / RFU KRTAP10-11 (11738290_x_at) / Fold change /veh KRTAP10-11 (11738290_x_at) / RFU MYO3A (11730013_a_at) / Fold change /veh MYO3A (11730013_a_at) / RFU EBF3 (11725865_a_at) / Fold change /veh EBF3 (11725865_a_at) / RFU CAMK2N1 (11719241_x_at) / Fold change /veh CAMK2N1 (11719241_x_at) / RFU C5orf56 (11738088_a_at) / Fold change /veh C5orf56 (11738088_a_at) / RFU OLFML3 (11715873_a_at) / Fold change /veh OLFML3 (11715873_a_at) / RFU LOC100653217 /// NTM (11731650_a_at) / Fold change /veh LOC100653217 /// NTM (11731650_a_at) / RFU MAPK11 (11762145_a_at) / Fold change /veh MAPK11 (11762145_a_at) / RFU FIZ1 (11724087_x_at) / Fold change /veh FIZ1 (11724087_x_at) / RFU OASL (11726364_x_at) / Fold change /veh OASL (11726364_x_at) / RFU SOX15 (11748057_x_at) / Fold change /veh SOX15 (11748057_x_at) / RFU CD79A (11719716_a_at) / Fold change /veh CD79A (11719716_a_at) / RFU HIST1H1D (11736915_at) / Fold change /veh HIST1H1D (11736915_at) / RFU CASKIN2 (11723855_a_at) / Fold change /veh CASKIN2 (11723855_a_at) / RFU LOC730098 (11760151_x_at) / Fold change /veh LOC730098 (11760151_x_at) / RFU OR4N2 (11742367_at) / Fold change /veh OR4N2 (11742367_at) / RFU PRRT2 (11749266_a_at) / Fold change /veh PRRT2 (11749266_a_at) / RFU SNX32 (11753110_a_at) / Fold change /veh SNX32 (11753110_a_at) / RFU CDHR5 (11726645_a_at) / Fold change /veh CDHR5 (11726645_a_at) / RFU RCAN1 (11760418_a_at) / Fold change /veh RCAN1 (11760418_a_at) / RFU FAM167A (11723789_a_at) / Fold change /veh FAM167A (11723789_a_at) / RFU FAM26E (11764081_at) / Fold change /veh FAM26E (11764081_at) / RFU ISYNA1 (11749810_s_at) / Fold change /veh ISYNA1 (11749810_s_at) / RFU ACY1 (11761880_at) / Fold change /veh ACY1 (11761880_at) / RFU 11764098_at / Fold change /veh 11764098_at / RFU SAMD14 (11745864_x_at) / Fold change /veh SAMD14 (11745864_x_at) / RFU NPB (11741838_a_at) / Fold change /veh NPB (11741838_a_at) / RFU TMPRSS6 (11731388_a_at) / Fold change /veh TMPRSS6 (11731388_a_at) / RFU KRTAP10-2 (11738614_at) / Fold change /veh KRTAP10-2 (11738614_at) / RFU ARHGAP8 /// PRR5-ARHGAP8 (11727945_x_at) / Fold change /veh ARHGAP8 /// PRR5-ARHGAP8 (11727945_x_at) / RFU KRTAP5-7 /// NADSYN1 (11734609_at) / Fold change /veh KRTAP5-7 /// NADSYN1 (11734609_at) / RFU RASL12 (11751679_a_at) / Fold change /veh RASL12 (11751679_a_at) / RFU CDKN2B (11736163_a_at) / Fold change /veh CDKN2B (11736163_a_at) / RFU PRF1 (11729649_at) / Fold change /veh PRF1 (11729649_at) / RFU, ZNF638 /// ZNF638-IT1 / Fold change vs veh, ZNF638 /// ZNF638-IT1 / RFU, PANK3 / Fold change vs veh, PANK3 / RFU, SH3YL1 / Fold change vs veh, SH3YL1 / RFU, ZEB2 / Fold change vs veh, ZEB2 / RFU, NRIP1 / Fold change vs veh, NRIP1 / RFU, PTTG1IP / Fold change vs veh, PTTG1IP / RFU, CAPN2 / Fold change vs veh, CAPN2 / RFU, MED14 / Fold change vs veh, MED14 / RFU, SNORA58 / Fold change vs veh, SNORA58 / RFU, C1orf63 / Fold change vs veh, C1orf63 / RFU, LRRFIP1 / Fold change vs veh, LRRFIP1 / RFU, NDUFAF7 / Fold change vs veh, NDUFAF7 / RFU, SLC12A2 / Fold change vs veh, SLC12A2 / RFU, IBTK / Fold change vs veh, IBTK / RFU, ESF1 / Fold change vs veh, ESF1 / Fold change vs veh, TMEM50B / RFU, TAOK1 / Fold change vs veh, TAOK1 / RFU, ACBD3 / Fold change vs veh, ACBD3 / RFU, TMA16 / Fold change vs veh, TMA16 / RFU, RWDD3 / Fold change vs veh, RWDD3 / RFU, BCAT1 / Fold change vs veh, BCAT1 / RFU, EDEM3 / Fold change vs veh, EDEM3 / RFU, TMEM33 / Fold change vs veh, TMEM33 / RFU, WDR75 / Fold change vs veh, WDR75 / RFU, AHCTF1 / Fold change vs veh, AHCTF1 / RFU, TFRC / Fold change vs veh, TFRC / RFU, ZDHHC17 / Fold change vs veh, ZDHHC17 / RFU, NOM1 / Fold change vs veh, NOM1 / RFU, ARL8B / Fold change vs veh, ARL8B / RFU, ZBTB11 / Fold change vs veh, ZBTB11 / RFU, TAMM41 / Fold change vs veh, TAMM41 / RFU, KIAA1704 /// LOC100996395 / Fold change vs veh, KIAA1704 /// LOC100996395 / RFU, ING1 / Fold change vs veh, ING1 / RFU, TRMT61B / Fold change vs veh, TRMT61B / RFU, FUBP3 / Fold change vs veh, FUBP3 / RFU, TP53 / Fold change vs veh, TP53 / RFU, TNKS2 / Fold change vs veh, TNKS2 / RFU, ZFP14 / Fold change vs veh, ZFP14 / RFU, ACTR2 / Fold change vs veh, ACTR2 / RFU, PPP3R1 / Fold change vs veh, PPP3R1 / RFU, PIK3R1 / Fold change vs veh, PIK3R1 / RFU, HNRNPA1 / Fold change vs veh, HNRNPA1 / RFU, RNF170 / Fold change vs veh, RNF170 / RFU, ZNF28 / Fold change vs veh, ZNF28 / RFU, RNGTT / Fold change vs veh, RNGTT / RFU, OGT / Fold change vs veh, OGT / RFU, BRD1 / Fold change vs veh, BRD1 / RFU, MARS / Fold change vs veh, MARS / RFU, ZNF655 / Fold change vs veh, ZNF655 / RFU, FAHD1 / Fold change vs veh, FAHD1 / RFU, BDP1 / Fold change vs veh, BDP1 / RFU, LRRCC1 / Fold change vs veh, LRRCC1 / RFU, ARID1A / Fold change vs veh, ARID1A / RFU, ZNF146 / Fold change vs veh, ZNF146 / RFU, ZNF330 / Fold change vs veh, ZNF330 / RFU, GPN3 / Fold change vs veh, GPN3 / RFU, C9orf123 / Fold change vs veh, C9orf123 / RFU, N4BP2L2 / Fold change vs veh, N4BP2L2 / RFU, ARFIP1 / Fold change vs veh, ARFIP1 / RFU, FAM179B / Fold change vs veh, FAM179B / RFU, BCL10 / Fold change vs veh, BCL10 / RFU, UHRF1BP1L / Fold change vs veh, UHRF1BP1L / RFU, BET1 / Fold change vs veh, BET1 / RFU, CNOT2 / Fold change vs veh, CNOT2 / RFU, ZNF268 / Fold change vs veh, ZNF268 / Fold change vs veh, ZNF507 / RFU, DGCR2 / Fold change vs veh, DGCR2 / RFU, WDSUB1 / Fold change vs veh, WDSUB1 / Fold change vs veh, HSP90B1 /// MIR3652 / RFU, ADSS / Fold change vs veh, ADSS / RFU, GK / Fold change vs veh, GK / RFU, ZNF148 / Fold change vs veh, ZNF148 / RFU, TAF9 / Fold change vs veh, TAF9 / RFU, SLC1A5 / Fold change vs veh, SLC1A5 / RFU, SLMO2 / Fold change vs veh, SLMO2 / RFU, ABCC4 / Fold change vs veh, ABCC4 / RFU, LOC101060439 /// RAP1B / Fold change vs veh, LOC101060439 /// RAP1B / RFU, RFX7 / Fold change vs veh, RFX7 / RFU, GTPBP10 / Fold change vs veh, GTPBP10 / RFU, CNEP1R1 / Fold change vs veh, CNEP1R1 / RFU, BIVM-ERCC5 /// ERCC5 / Fold change vs veh, BIVM-ERCC5 /// ERCC5 / RFU, ILF3 / Fold change vs veh, ILF3 / RFU 11762660_at / Fold change /veh 11762660_at / RFU VCAN (11757783_s_at) / Fold change /veh VCAN (11757783_s_at) / RFU DDX43 (11728927_at) / Fold change /veh DDX43 (11728927_at) / RFU KRT8 (11758188_x_at) / Fold change /veh KRT8 (11758188_x_at) / RFU NKD1 (11759106_at) / Fold change /veh NKD1 (11759106_at) / RFU SRD5A1 (11742802_a_at) / Fold change /veh SRD5A1 (11742802_a_at) / RFU TPSAB1 /// TPSB2 (11721975_s_at) / Fold change /veh TPSAB1 /// TPSB2 (11721975_s_at) / RFU GSTM3 (11746129_a_at) / Fold change /veh GSTM3 (11746129_a_at) / RFU IL23R (11737362_x_at) / Fold change /veh IL23R (11737362_x_at) / RFU TMEM51 (11727254_a_at) / Fold change /veh TMEM51 (11727254_a_at) / RFU PIWIL2 (11732686_x_at) / Fold change /veh PIWIL2 (11732686_x_at) / RFU ORM1 (11744905_x_at) / Fold change /veh ORM1 (11744905_x_at) / RFU CCDC152 (11743942_at) / Fold change /veh CCDC152 (11743942_at) / RFU ECM1 (11717891_a_at) / Fold change /veh ECM1 (11717891_a_at) / RFU IL23R (11748794_a_at) / Fold change /veh IL23R (11748794_a_at) / RFU TNFAIP8L3 (11732012_x_at) / Fold change /veh TNFAIP8L3 (11732012_x_at) / RFU MBOAT4 (11741988_at) / Fold change /veh MBOAT4 (11741988_at) / RFU 11764193_at / Fold change /veh 11764193_at / RFU TMEM53 (11763286_at) / Fold change /veh TMEM53 (11763286_at) / RFU MAGEB2 (11727129_at) / Fold change /veh MAGEB2 (11727129_at) / RFU TMEM200A (11744735_a_at) / Fold change /veh TMEM200A (11744735_a_at) / RFU CCDC152 (11751479_a_at) / Fold change /veh CCDC152 (11751479_a_at) / RFU FAM211A (11726209_a_at) / Fold change /veh FAM211A (11726209_a_at) / RFU RGS16 (11746705_a_at) / Fold change /veh RGS16 (11746705_a_at) / RFU VCAN (11755009_s_at) / Fold change /veh VCAN (11755009_s_at) / RFU RHOB (11743442_s_at) / Fold change /veh RHOB (11743442_s_at) / RFU RGS16 (11720943_a_at) / Fold change /veh RGS16 (11720943_a_at) / RFU RGS16 (11720944_at) / Fold change /veh RGS16 (11720944_at) / RFU, VPS4B / Fold change vs veh, VPS4B / RFU, CREB1 / Fold change vs veh, CREB1 / RFU, DNAJC13 / Fold change vs veh, DNAJC13 / RFU, GNAQ / Fold change vs veh, GNAQ / RFU, CDK5R1 / Fold change vs veh, CDK5R1 / RFU, ZRANB3 / Fold change vs veh, ZRANB3 / RFU, CUL4A / Fold change vs veh, CUL4A / RFU, CCNY / Fold change vs veh, CCNY / RFU, UFL1 / Fold change vs veh, UFL1 / RFU, COG3 / Fold change vs veh, COG3 / RFU, DIAPH2 / Fold change vs veh, DIAPH2 / RFU, SKA2 / Fold change vs veh, SKA2 / RFU, AFF3 / Fold change vs veh, AFF3 / RFU, LMF1 / Fold change vs veh, LMF1 / RFU, IPO11 / Fold change vs veh, IPO11 / RFU, DFFB / Fold change vs veh, DFFB / RFU, FOXP1 / Fold change vs veh, FOXP1 / RFU, CARD8 / Fold change vs veh, CARD8 / RFU, STRN3 / Fold change vs veh, STRN3 / RFU, ADK / Fold change vs veh, ADK / RFU, RASSF2 / Fold change vs veh, RASSF2 / RFU, WIPF1 / Fold change vs veh, WIPF1 / RFU, LARP1B / Fold change vs veh, LARP1B / RFU, RASA1 / Fold change vs veh, RASA1 / RFU, RB1 / Fold change vs veh, RB1 / RFU, PPFIA1 / Fold change vs veh, PPFIA1 / RFU, MAT2A / Fold change vs veh, MAT2A / RFU, CCT5 / Fold change vs veh, CCT5 / RFU, WDR92 / Fold change vs veh, WDR92 / RFU, CUX1 / Fold change vs veh, CUX1 / RFU, TTC7A / Fold change vs veh, TTC7A / RFU, TMEM135 / Fold change vs veh, TMEM135 / RFU, DEPTOR / Fold change vs veh, DEPTOR / RFU, CPM / Fold change vs veh, CPM / RFU, DNAJB6 / Fold change vs veh, DNAJB6 / RFU, CACNA2D3 / Fold change vs veh, CACNA2D3 / RFU, DTX4 / Fold change vs veh, DTX4 / RFU, TFCP2 / Fold change vs veh, TFCP2 / RFU, GMCL1 /// GMCL1P1 / Fold change vs veh, GMCL1 /// GMCL1P1 / RFU, AEBP2 / Fold change vs veh, AEBP2 / RFU, SNHG1 /// SNORD22 /// SNORD25 /// SNORD26 /// SNORD27 /// SNORD28 /// SNORD29 /// SNORD31 / Fold change vs veh, SNHG1 /// SNORD22 /// SNORD25 /// SNORD26 /// SNORD27 /// SNORD28 /// SNORD29 /// SNORD31 / Fold change (Aza/veh), C12orf56 (ProbeSet 11735607_a_at) / Fold change (ACY-1035/veh), C12orf56 (ProbeSet 11735607_a_at) / Fold change (Aza/veh), FGFR1OP (ProbeSet 11751329_s_at) / Fold change (ACY-1035/veh), FGFR1OP (ProbeSet 11751329_s_at) / Fold change (Aza/veh), VPS36 (ProbeSet 11739960_a_at) / Fold change (ACY-1035/veh), VPS36 (ProbeSet 11739960_a_at) / RFU SYPL1 (11715823_x_at) / Fold change /veh SYPL1 (11715823_x_at) / RFU IGFBP7 (11715501_s_at) / Fold change /veh IGFBP7 (11715501_s_at) / RFU REEP3 (11722064_at) / Fold change /veh REEP3 (11722064_at) / RFU IGLL1 (11728026_x_at) / Fold change /veh IGLL1 (11728026_x_at): dose or concentration left out as unconfirmed
Conditions: ProbeSet 11727545_at; LIST B

SMILES: Nc1ncn([C@@H]2O[C@H](CO)[C@@H](O)[C@H]2O)c(=O)n1 [azacitidine]
- Fold change vs veh, PANK3: 0.85

— article PMC5218480 (PLoS ONE, 2017)
